Assay results from ChEMBL document CHEMBL1221220, “Transport and signaling via the amino acid binding site of the yeast Gap1 amino acid transceptor” (Nat Chem Biol, 2009).
Numbering of substitutions follows the chain as printed. Active and inactive are the calls of the source. The calls are words filed in the database; no cut-off is given here.

Assays:
[1] = test system: T1, General amino-acid permease GAP1 (Saccharomyces cerevisiae), P19145 [A405C]; test: Induction of yeast Gap1 A405C mutant-mediated trehalose activation at 10 mM
T1 sequence (whole entry): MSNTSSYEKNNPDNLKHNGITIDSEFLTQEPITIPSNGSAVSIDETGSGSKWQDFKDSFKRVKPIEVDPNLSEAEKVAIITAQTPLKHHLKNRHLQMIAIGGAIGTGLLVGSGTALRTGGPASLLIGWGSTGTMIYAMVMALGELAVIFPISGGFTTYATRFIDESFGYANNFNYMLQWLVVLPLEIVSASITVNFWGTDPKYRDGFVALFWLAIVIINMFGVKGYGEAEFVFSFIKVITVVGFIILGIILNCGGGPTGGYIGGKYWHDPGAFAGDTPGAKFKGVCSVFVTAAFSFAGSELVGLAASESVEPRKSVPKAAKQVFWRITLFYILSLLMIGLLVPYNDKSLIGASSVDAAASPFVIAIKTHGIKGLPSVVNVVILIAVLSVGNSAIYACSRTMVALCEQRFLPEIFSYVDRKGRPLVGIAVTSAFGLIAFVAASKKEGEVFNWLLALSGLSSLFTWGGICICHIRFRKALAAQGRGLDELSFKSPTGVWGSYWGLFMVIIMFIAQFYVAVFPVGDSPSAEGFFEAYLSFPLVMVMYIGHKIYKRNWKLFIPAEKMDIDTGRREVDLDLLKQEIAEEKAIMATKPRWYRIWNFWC

[2] = test system: T2, General amino-acid permease GAP1 (Saccharomyces cerevisiae), P19145 [I382C]; test: Induction of yeast Gap1 I382C mutant-mediated trehalose activation at 2 mM in presence of 10 mM MTSEA treated before compound addition
T2 sequence (whole entry): T1 sequence (whole entry) with I382C, C405A

[3] = test system: T3, General amino-acid permease GAP1 (Saccharomyces cerevisiae), P19145 [N391C]; test: Induction of yeast Gap1 N391C mutant-mediated amino acid uptake at 2 mM in presence of 10 mM MTSEA treated before compound addition
T3 sequence (whole entry): T1 sequence (whole entry) with N391C, C405A

[4] = test system: T4, General amino-acid permease GAP1 (Saccharomyces cerevisiae), P19145 [L387C]; test: Induction of yeast Gap1 L387C mutant-mediated trehalose activation at 10 mM
T4 sequence (whole entry): T1 sequence (whole entry) with L387C, C405A

Activity [1]: inactive
inhibition [2]: Active
Activity [3]: Active
Activity [4]: inactive
Structure (SMILES): NC(=O)NCCC[C@H](N)C(=O)O
